Source: patent publication US20070049564A1 (Wyeth, priority 2005, published 2007)
Converted amounts (≈) assume the structure as drawn. Read-outs that look alike come from different tables or passages of the source.

Legend:
Assay in all cases: MIC, broth microdilution
[1] = system: E. faecalis GC 2267; conditions: Enterococcus faecalis
[2] = system: S. epidermidis GC 4935; conditions: Staphylococcus epidermidis
[3] = system: E. coli GC 2233; conditions: Escherichia coli
[4] = system: E. coli GC 4560; conditions: Escherichia coli
[5] = system: E. coli GC 1073; conditions: Escherichia coli
[6] = system: S. aureus GC 6469; conditions: Staphylococcus aureus
[7] = system: S. aureus GC 1079; conditions: Staphylococcus aureus
[8] = system: E. faecalis GC 2265; conditions: Enterococcus faecalis
[9] = system: E. coli GC 2272; conditions: Escherichia coli
[10] = system: E. coli GC 6465; conditions: Escherichia coli
[11] = system: S. aureus GC 6335; conditions: Staphylococcus aureus
[12] = system: c. albicans GC 3066
[13] = system: E. coli GC 2271; conditions: Escherichia coli
[14] = system: E. faecium GC 2243; conditions: Enterococcus faecium
[15] = system: S. aureus GC 6467; conditions: Staphylococcus aureus
[16] = system: E. coli GC 2203; conditions: Escherichia coli
[17] = system: S. aureus GC 1131; conditions: Staphylococcus aureus
[18] = system: E. coli GC 3226; conditions: Escherichia coli
[19] = system: P. aeruginosa GC 2214; conditions: Pseudomonas aeruginosa
[20] = system: E. coli GC 2270; conditions: Escherichia coli

MIC ([1]; GC2267, read-out: MINIMAL INHIBITORY CONCENTRATION MIC, pre-incubated in Mouse Serum): 2 µg/mL (≈ 2.48 µM)
MIC ([1]; GC2267, read-out: MINIMAL INHIBITORY CONCENTRATION MIC, pre-incubated in Water): 64 µg/mL (≈ 79.4 µM)
MIC ([2]; GC4935, read-out: MINIMAL INHIBITORY CONCENTRATION MIC, pre-incubated in Mouse Serum): 1 µg/mL (≈ 1.24 µM)
MIC ([2]; GC4935, read-out: MINIMAL INHIBITORY CONCENTRATION MIC, pre-incubated in Water): 32 µg/mL (≈ 39.7 µM)
MIC ([3]; GC2233, read-out: MINIMAL INHIBITORY CONCENTRATION MIC, pre-incubated in Mouse Serum): 0.5 µg/mL (≈ 0.62 µM)
MIC ([3]; GC2233, read-out: MINIMAL INHIBITORY CONCENTRATION MIC, pre-incubated in Water): > 64 µg/mL
MIC ([4]; GC4560, read-out: MINIMAL INHIBITORY CONCENTRATION MIC, pre-incubated in Mouse Serum): 0.25 µg/mL (≈ 0.31 µM)
MIC ([4]; GC4560, read-out: MINIMAL INHIBITORY CONCENTRATION MIC, pre-incubated in Water): > 64 µg/mL
MIC ([5]; GC1073, read-out: MINIMAL INHIBITORY CONCENTRATION MIC, pre-incubated in Mouse Serum): 0.5 µg/mL (≈ 0.62 µM)
MIC ([5]; GC1073, read-out: MINIMAL INHIBITORY CONCENTRATION MIC, pre-incubated in Water): > 64 µg/mL
MIC ([6]; GC6469, read-out: MINIMAL INHIBITORY CONCENTRATION MIC, pre-incubated in Mouse Serum): 4 µg/mL (≈ 4.96 µM)
MIC ([6]; GC6469, read-out: MINIMAL INHIBITORY CONCENTRATION MIC, pre-incubated in Water): 64 µg/mL (≈ 79.4 µM)
MIC ([7]; GC1079, read-out: MINIMAL INHIBITORY CONCENTRATION MIC, pre-incubated in Mouse Serum): 2 µg/mL (≈ 2.48 µM)
MIC ([7]; GC1079, read-out: MINIMAL INHIBITORY CONCENTRATION MIC, pre-incubated in Water): 64 µg/mL (≈ 79.4 µM)
MIC ([8]; GC2265, read-out: MINIMAL INHIBITORY CONCENTRATION MIC, pre-incubated in Mouse Serum): 2 µg/mL (≈ 2.48 µM)
MIC ([8]; GC2265, read-out: MINIMAL INHIBITORY CONCENTRATION MIC, pre-incubated in Water): 64 µg/mL (≈ 79.4 µM)
MIC ([9]; GC2272, read-out: MINIMAL INHIBITORY CONCENTRATION MIC, pre-incubated in Mouse Serum): 0.5 µg/mL (≈ 0.62 µM)
MIC ([9]; GC2272, read-out: MINIMAL INHIBITORY CONCENTRATION MIC, pre-incubated in Water): > 64 µg/mL
MIC ([10]; GC6465, read-out: MINIMAL INHIBITORY CONCENTRATION MIC, pre-incubated in Mouse Serum): 8 µg/mL (≈ 9.93 µM)
MIC ([10]; GC6465, read-out: MINIMAL INHIBITORY CONCENTRATION MIC, pre-incubated in Water): > 64 µg/mL
MIC ([11]; GC6335, read-out: MINIMAL INHIBITORY CONCENTRATION MIC, pre-incubated in Mouse Serum): 1 µg/mL (≈ 1.24 µM)
MIC ([11]; GC6335, read-out: MINIMAL INHIBITORY CONCENTRATION MIC, pre-incubated in Water): 16 µg/mL (≈ 19.9 µM)
MIC ([12]; Candida albicans, GC3066, read-out: MINIMAL INHIBITORY CONCENTRATION MIC): > 64 µg/mL
MINIMAL INHIBITORY CONCENTRATION MIC ([12]; pre-incubated in Water): >64 UG/ML
MIC ([13]; GC2271, read-out: MINIMAL INHIBITORY CONCENTRATION MIC, pre-incubated in Mouse Serum): 0.25 µg/mL (≈ 0.31 µM)
MIC ([13]; GC2271, read-out: MINIMAL INHIBITORY CONCENTRATION MIC, pre-incubated in Water): > 64 µg/mL
MIC ([14]; GC2243, read-out: MINIMAL INHIBITORY CONCENTRATION MIC, pre-incubated in Mouse Serum): 0.25 µg/mL (≈ 0.31 µM)
MIC ([14]; GC2243, read-out: MINIMAL INHIBITORY CONCENTRATION MIC, pre-incubated in Water): 0.25 µg/mL (≈ 0.31 µM)
MIC ([15]; GC6467, read-out: MINIMAL INHIBITORY CONCENTRATION MIC, pre-incubated in Mouse Serum): 4 µg/mL (≈ 4.96 µM)
MIC ([15]; GC6467, read-out: MINIMAL INHIBITORY CONCENTRATION MIC, pre-incubated in Water): 64 µg/mL (≈ 79.4 µM)
MIC ([16]; GC2203, read-out: MINIMAL INHIBITORY CONCENTRATION MIC, pre-incubated in Mouse Serum): 0.5 µg/mL (≈ 0.62 µM)
MIC ([16]; GC2203, read-out: MINIMAL INHIBITORY CONCENTRATION MIC, pre-incubated in Water): > 64 µg/mL
MIC ([17]; GC1131, read-out: MINIMAL INHIBITORY CONCENTRATION MIC, pre-incubated in Mouse Serum): 0.5 µg/mL (≈ 0.62 µM)
MIC ([17]; GC1131, read-out: MINIMAL INHIBITORY CONCENTRATION MIC, pre-incubated in Water): 32 µg/mL (≈ 39.7 µM)
MIC ([18]; GC3226, read-out: MINIMAL INHIBITORY CONCENTRATION MIC, pre-incubated in Mouse Serum): 0.5 µg/mL (≈ 0.62 µM)
MIC ([18]; GC3226, read-out: MINIMAL INHIBITORY CONCENTRATION MIC, pre-incubated in Water): > 64 µg/mL
MIC ([19]; GC2214, read-out: MINIMAL INHIBITORY CONCENTRATION MIC, pre-incubated in Mouse Serum): 16 µg/mL (≈ 19.9 µM)
MIC ([19]; GC2214, read-out: MINIMAL INHIBITORY CONCENTRATION MIC, pre-incubated in Water): > 64 µg/mL
MIC ([20]; GC2270, read-out: MINIMAL INHIBITORY CONCENTRATION MIC, pre-incubated in Mouse Serum): 0.5 µg/mL (≈ 0.62 µM)
MIC ([20]; GC2270, read-out: MINIMAL INHIBITORY CONCENTRATION MIC, pre-incubated in Water): > 64 µg/mL
SMILES: CCCN(CC(=O)Nc1cc(N(C)C)c2c(c1O)C(=O)C1=C(O)[C@]3(O)C(=O)C(C(N)=O)=C(O)[C@@H](N(C)C)[C@@H]3C[C@@H]1C2)C(=O)OCOC(=O)c1ccc(C(C)(C)C)cc1 [Example 28, ({[(2-{[(5aR,6aS,7S,10aS)-9-(aminocarbonyl)-4,7-bis(dimethylamino)-1,8,10a,11-tetrahydroxy-10,12-dioxo-5,5a,6,6a,7,10,10a,12-octahydrotetracen-2-yl]amino}-2-oxoethyl)(propyl)amino]carbonyl}oxy)methyl 4-tert-butylbenzoate]
